# Assay results reported in US10975101B2, “Ultra-potent vinca alkaloids: added molecular complexity further disrupts the tublin dimer-dimer interface” (priority 2016, dated 2021).
# Columns and labels:
# [1] = test system: HCT116/VM46 (a vinblastine-resistant strain of HCT116) cells; assay: Cell growth inhibition assay, HCT116/VM46; type: cell-based, human; conditions: 72 hours incubation, phosphatase assay; Pgp-overexpressing resistant line
# Experimental: (§1) Compounds were tested for their cell growth inhibition of L1210 (ATCC no. CCL-219, mouse lymphocytic leukemia) cells, HCT116 (ATCC no. CCL-247, human colorectal carcinoma) cells, and HCT116/VM46 (a vinblastine-resistant strain of HCT116) cells in culture. A population of cells (>1×10^6 cells/mL as determined with a hemocytometer) was diluted with an appropriate amount of Dulbecco's Modified Eagle Medium (DMEM, Gibco) containing 10% fetal bovine serum (FBS, Gibco) to a final concentration of 30000 cells/mL.
# (§2) To each well of a 96-well plate (Corning Costar), 100 μL of the cell media solution was added with a multichannel pipet. The cultures were incubated at 37° C. in an atmosphere of 5% CO2 and 95% humidified air for 24 hours. The test compounds were added to the plate as follows: test substances were diluted in DMSO to a concentration of 1 mM and 10-fold serial dilutions were performed on a separate 96-well plate. Fresh culture medium (100 μL) was added to each well of cells to constitute 200 μL of medium per well followed by 2 μL of each test agent. Compounds were tested in duplicate (n=2-18 times) at six concentrations between 0-1000 nM or 0-10000 nM. Following addition, cultures were incubated for an additional 72 hours.
# (§3) A phosphatase assay was used to establish the IC50 values as follows: the media in each cell was removed and 100 μL of phosphatase solution (100 mg phosphatase substrate in 30 mL of 0.1 M NaOAc, pH 5.5, 0.1% Triton X-100 buffer) was added to each well. The plates were incubated at 37° C. for either 5 minutes (L1210) or 15 minutes (HCT116 and HCT116/VM46). After the given incubation time, 50 μL of 0.1 N NaOH was added to each well and the absorption at 405 nm was determined using a 96 well plate reader. As the absorption is directly proportional to the number of living cells, the IC50 values were calculated and the reported values represent of the average of 4-36 determinations (SD±10%).
# [2] = test system: L1210 (mouse lymphocytic leukemia) cells; assay: Cell growth inhibition assay, L1210; type: cell-based; conditions: 72 hours incubation, phosphatase assay
# Experimental: as §1, §2, §3
# [3] = test system: HCT116 (human colorectal carcinoma) cells; assay: cells; type: cell-based; conditions: 72 hours incubation, phosphatase assay; read-out: IC50, HCT116
# Experimental: as §1, §2, §3
Compound,IC50 [1],IC50 [2],IC50 [3]
CCCCCC(=O)Nc1ccc2c(c1)CN(C(=O)N[C@@]1(CC)C[C@H]3CN(CCc4c([nH]c5ccccc45)[C@@](C(=O)OC)(c4cc5c(cc4OC)N(C)[C@H]4[C@@](O)(C(=O)OC)[C@H](OC(C)=O)[C@]6(CC)C=CCN7CC[C@]54[C@@H]76)C3)C1)C2 [Compound 45],13 nM,0.44 nM,0.62 nM
CC[C@]1(NC(=O)N2Cc3ccc(N)cc3C2)C[C@H]2CN(CCc3c([nH]c4ccccc34)[C@@](C(=O)OC)(c3cc4c(cc3OC)N(C)[C@H]3[C@@](O)(C(=O)OC)[C@H](OC(C)=O)[C@]5(CC)C=CCN6CC[C@]43[C@@H]65)C2)C1 [Compound 36],6.8 nM,0.47 nM,0.42 nM
CC[C@]1(NC(=O)N2Cc3ccc(NC)cc3C2)C[C@H]2CN(CCc3c([nH]c4ccccc34)[C@@](C(=O)OC)(c3cc4c(cc3OC)N(C)[C@H]3[C@@](O)(C(=O)OC)[C@H](OC(C)=O)[C@]5(CC)C=CCN6CC[C@]43[C@@H]65)C2)C1 [Compound 37],4.6 nM,0.45 nM,0.43 nM
CC[C@]1(NC(=O)N2Cc3ccc(F)cc3C2)C[C@H]2CN(CCc3c([nH]c4ccccc34)[C@@](C(=O)OC)(c3cc4c(cc3OC)N(C)[C@H]3[C@@](O)(C(=O)OC)[C@H](OC(C)=O)[C@]5(CC)C=CCN6CC[C@]43[C@@H]65)C2)C1 [Compound 31],5.2 nM,0.63 nM,0.52 nM
C=CC(=O)Nc1ccc2c(c1)CN(C(=O)N[C@@]1(CC)C[C@H]3CN(CCc4c([nH]c5ccccc45)[C@@](C(=O)OC)(c4cc5c(cc4OC)N(C)[C@H]4[C@@](O)(C(=O)OC)[C@H](OC(C)=O)[C@]6(CC)C=CCN7CC[C@]54[C@@H]76)C3)C1)C2 [Compound 46],7.1 nM,0.38 nM,0.3 nM
CC[C@]1(NC(=O)N2Cc3ccc(NC(=O)c4ccc(-c5ccccc5)cc4)cc3C2)C[C@H]2CN(CCc3c([nH]c4ccccc34)[C@@](C(=O)OC)(c3cc4c(cc3OC)N(C)[C@H]3[C@@](O)(C(=O)OC)[C@H](OC(C)=O)[C@]5(CC)C=CCN6CC[C@]43[C@@H]65)C2)C1 [Compound 51],75 nM,5.9 nM,6.3 nM
"CC[C@]1(NC(=O)N2CCC(N(C)C)C2)C[C@H]2CN(CCc3c([nH]c4ccccc34)[C@@](C(=O)OC)(c3cc4c(cc3OC)N(C)[C@H]3[C@@](O)(C(=O)OC)[C@H](OC(C)=O)[C@]5(CC)C=CCN6CC[C@]43[C@@H]65)C2)C1 (single isomer, unassigned) [Compound 11]",390 nM,14 nM,6.2 nM
"CC[C@]1(NC(=O)N2CCC(C#N)C2)C[C@H]2CN(CCc3c([nH]c4ccccc34)[C@@](C(=O)OC)(c3cc4c(cc3OC)N(C)[C@H]3[C@@](O)(C(=O)OC)[C@H](OC(C)=O)[C@]5(CC)C=CCN6CC[C@]43[C@@H]65)C2)C1 (single isomer, unassigned) [Compound 21]",60 nM,5.1 nM,1.8 nM
CC[C@]1(NC(=O)N2Cc3ccc(NC(=O)c4ccncc4)cc3C2)C[C@H]2CN(CCc3c([nH]c4ccccc34)[C@@](C(=O)OC)(c3cc4c(cc3OC)N(C)[C@H]3[C@@](O)(C(=O)OC)[C@H](OC(C)=O)[C@]5(CC)C=CCN6CC[C@]43[C@@H]65)C2)C1 [Compound 57],10.4 nM,0.27 nM,0.28 nM
CC[C@]1(NC(=O)N2Cc3ccc(NC(=O)c4ccc(OC(F)(F)F)cc4)cc3C2)C[C@H]2CN(CCc3c([nH]c4ccccc34)[C@@](C(=O)OC)(c3cc4c(cc3OC)N(C)[C@H]3[C@@](O)(C(=O)OC)[C@H](OC(C)=O)[C@]5(CC)C=CCN6CC[C@]43[C@@H]65)C2)C1 [Compound 52],75 nM,4.3 nM,5.3 nM
CC[C@]1(NC(=O)N2Cc3ccc(N(C)C)cc3C2)C[C@H]2CN(CCc3c([nH]c4ccccc34)[C@@](C(=O)OC)(c3cc4c(cc3OC)N(C)[C@H]3[C@@](O)(C(=O)OC)[C@H](OC(C)=O)[C@]5(CC)C=CCN6CC[C@]43[C@@H]65)C2)C1 [Compound 38],3.9 nM,0.5 nM,0.62 nM
CC[C@]1(NC(=O)N2Cc3ccc(Br)cc3C2)C[C@H]2CN(CCc3c([nH]c4ccccc34)[C@@](C(=O)OC)(c3cc4c(cc3OC)N(C)[C@H]3[C@@](O)(C(=O)OC)[C@H](OC(C)=O)[C@]5(CC)C=CCN6CC[C@]43[C@@H]65)C2)C1 [Compound 33],6.4 nM,0.62 nM,0.56 nM
CC[C@]1(NC(=O)N2CCCCCCC2)C[C@H]2CN(CCc3c([nH]c4ccccc34)[C@@](C(=O)OC)(c3cc4c(cc3OC)N(C)[C@H]3[C@@](O)(C(=O)OC)[C@H](OC(C)=O)[C@]5(CC)C=CCN6CC[C@]43[C@@H]65)C2)C1 [Compound 25],330 nM,60 nM,35 nM
CC[C@]1(NC(=O)N2Cc3ccc(NC(=O)C(C)C)cc3C2)C[C@H]2CN(CCc3c([nH]c4ccccc34)[C@@](C(=O)OC)(c3cc4c(cc3OC)N(C)[C@H]3[C@@](O)(C(=O)OC)[C@H](OC(C)=O)[C@]5(CC)C=CCN6CC[C@]43[C@@H]65)C2)C1 [Compound 43],6.4 nM,0.39 nM,0.49 nM
CC[C@]1(NC(=O)N2Cc3ccc(C)cc3C2)C[C@H]2CN(CCc3c([nH]c4ccccc34)[C@@](C(=O)OC)(c3cc4c(cc3OC)N(C)[C@H]3[C@@](O)(C(=O)OC)[C@H](OC(C)=O)[C@]5(CC)C=CCN6CC[C@]43[C@@H]65)C2)C1 [Compound 30],5.9 nM,0.41 nM,0.44 nM
CCC1(NC(=O)N2CCC(OC)C2)CC2CN(CCc3c([nH]c4ccccc34)C(C(=O)OC)(c3cc4c(cc3OC)N(C)C3C(O)(C(=O)OC)C(OC(C)=O)C5(CC)C=CCN6CCC43C65)C2)C1 (mixture of isomers) [Compound 16],25 nM,3.3 nM,1 nM
"CC[C@]1(NC(=O)N2CCC(F)C2)C[C@H]2CN(CCc3c([nH]c4ccccc34)[C@@](C(=O)OC)(c3cc4c(cc3OC)N(C)[C@H]3[C@@](O)(C(=O)OC)[C@H](OC(C)=O)[C@]5(CC)C=CCN6CC[C@]43[C@@H]65)C2)C1 (single isomer, unassigned) [Compound 18]",20 nM,0.6 nM,0.61 nM
CCCNc1ccc2c(c1)CN(C(=O)N[C@@]1(CC)C[C@H]3CN(CCc4c([nH]c5ccccc45)[C@@](C(=O)OC)(c4cc5c(cc4OC)N(C)[C@H]4[C@@](O)(C(=O)OC)[C@H](OC(C)=O)[C@]6(CC)C=CCN7CC[C@]54[C@@H]76)C3)C1)C2 [Compound 39],4.6 nM,0.4 nM,0.31 nM
CC[C@]1(NC(=O)N2Cc3ccc(NC(=O)c4cncnc4)cc3C2)C[C@H]2CN(CCc3c([nH]c4ccccc34)[C@@](C(=O)OC)(c3cc4c(cc3OC)N(C)[C@H]3[C@@](O)(C(=O)OC)[C@H](OC(C)=O)[C@]5(CC)C=CCN6CC[C@]43[C@@H]65)C2)C1 [Compound 59],8.8 nM,0.51 nM,0.6 nM
CC[C@]1(NC(=O)N2Cc3ccc(C(F)(F)F)cc3C2)C[C@H]2CN(CCc3c([nH]c4ccccc34)[C@@](C(=O)OC)(c3cc4c(cc3OC)N(C)[C@H]3[C@@](O)(C(=O)OC)[C@H](OC(C)=O)[C@]5(CC)C=CCN6CC[C@]43[C@@H]65)C2)C1 [Compound 34],6.2 nM,0.59 nM,0.67 nM
CC[C@]1(NC(=O)N2Cc3ccc(NC(=O)c4cccnc4)cc3C2)C[C@H]2CN(CCc3c([nH]c4ccccc34)[C@@](C(=O)OC)(c3cc4c(cc3OC)N(C)[C@H]3[C@@](O)(C(=O)OC)[C@H](OC(C)=O)[C@]5(CC)C=CCN6CC[C@]43[C@@H]65)C2)C1 [Compound 56],6.6 nM,0.48 nM,0.33 nM
"CC[C@]1(NC(=O)N2CCC(F)C2)C[C@H]2CN(CCc3c([nH]c4ccccc34)[C@@](C(=O)OC)(c3cc4c(cc3OC)N(C)[C@H]3[C@@](O)(C(=O)OC)[C@H](OC(C)=O)[C@]5(CC)C=CCN6CC[C@]43[C@@H]65)C2)C1 (single isomer, unassigned) [Compound 17]",7.2 nM,0.62 nM,0.64 nM
CC[C@]1(NC(=O)N2Cc3ccc(NC(=O)c4ccnnc4)cc3C2)C[C@H]2CN(CCc3c([nH]c4ccccc34)[C@@](C(=O)OC)(c3cc4c(cc3OC)N(C)[C@H]3[C@@](O)(C(=O)OC)[C@H](OC(C)=O)[C@]5(CC)C=CCN6CC[C@]43[C@@H]65)C2)C1 [Compound 62],50 nM,0.69 nM,0.64 nM
